In the assay the test system is A. baumannii ATCC19606 resistant mutant. As to the kind of experiment: microbe, parasite or virus in culture. The format is cell-based.

The structures appear in SMILES notation. In brackets after ≈: the same amount, converted by molar mass.

As to `CCOc1cc(Nc2ccc3nc(-c4ccc(F)cc4)cc(N)c3c2)nc(N)n1` [Compound 9a, N^6-(2-Amino-6-ethoxypyrimidin-4-yl)-2-(4-fluorophenyl)quinoline-4,6-diamine], the MIC (Acinetobacter baumannii, ATCC19606, read-out: MIC mutant) worked out at 4 µg/mL (≈ 10.2 µM). The “fold increase of MIC” value (mutant CH5080 vs parent A. baumannii ATCC19606) is 2.

The record behind these values is paper PMC8922281, “Synthesis and In Vitro Biological Evaluation of Quinolinyl Pyrimidines Targeting Type II NADH-Dehydrogenase (NDH-2)” (ACS Infectious Diseases, 2022).
